{"source": "patent US7528235B2", "about": "“Multi-functional antibodies” (The Regents of the Univarsity of California, priority 2003, dated 2009)", "tested_on": "antibody 2D12.5", "test": "competitive immunoassay (ELISA) of metal-DOTA complexes against immobilized Y-DOTA", "type": "binding, murine", "details": "37° C.; DOTA analog [S]-2-(p-nitrobenzyl)-DOTA", "source_text": "FIG. 13 is graphical display showing the relative binding of metal-DOTA complexes to antibody 2D12.5. A representative set of competitive binding curves obtained from ELISA experiments described in Example 3 below. Error bars (representing the standard error of the mean) are shown, but are generally smaller than the data points.\nElements plotted in the order Sc (open circle), Lu, Yb, Tm, Er, Ho, Y (open diamond), Dy, Tb, Gd, Eu, Sm, Nd, Pr, Ce, La. ΔΔG values relative to Y-DOTA, set at 0. Error bars represent standard error of the mean.\nTo determine the metal selectivity of the antibody 2D12.5, a competitive immunoassays was used to measure the binding constants of multiple metal-DOTA complexes relative to Y^3+-DOTA.\nWe examined the monoclonal antibody 2D12.5, initially developed to bind specifically to Y-DOTA for targeted radiotherapy (see, e.g., Goodwin et al., i Cancer Res. 54: 5937-5946 (1994)), in order to determine the scope of its activity. To assess the metal selectivity of antibody 2D12.5, a competitive immunoassay to measure the binding constants of various metal-DOTA complexes relative to the original Y^3+ complex was developed (FIG. 12). Briefly, 2D12.5 was incubated at 37° C. in the presence of immobilized Y-DOTA and a soluble metal-DOTA competitor. […] Binding was measured by standard methods known to those of skill in the art. […]"}
{"compound": "O=C([O-])CN1CCN(CC(=O)[O-])CCN(CC(=O)[O-])C(Cc2ccc([N+](=O)[O-])cc2)CN(CC(=O)[O-])CC1.[Tb+3]", "note": "(stereo not shown) [Tb-DOTA]", "values": [{"measurement": "binding strength relative to the original Y^3+ complex (in words)", "result": "strongest binders"}]}
